Reference: PMC8625052, “The Antiarrhythmic Activity of Novel Pyrrolidin-2-one Derivative S-75 in Adrenaline-Induced Arrhythmia” (Pharmaceuticals, 2021)
“Also recorded” adds a separate entry of the source.

Key:
[1] = target: T1, potassium hERG channel (Homo sapiens, UniProt Q12809); test: Radioligand binding assay for K+ channel hERG ([3H]-dofetilide, HEK-293 cells)
T1 construct: host or cells: HEK-293
Experimental: The radioligand binding studies for K^+ and Ca^2+ channels were performed commercially by Eurofins Cerep (Celle l’Evescault, France) using testing procedures described elsewhere [68, 69].

[2] = target: α1A receptor; set-up: method as in PMID 25813897; conditions: antagonist; cited from earlier work
[3] = target: α1 receptors; set-up: method as in PMID 25813897; conditions: cited from earlier work
[4] = target: α1B receptor; set-up: method as in PMID 25813897; conditions: antagonist; cited from earlier work
[5] = target: T2, β1-adrenergic receptors (Rattus norvegicus, UniProt P18090); test: Radioligand binding assay for β1-adrenergic receptors ([3H]-CGP-12177); conditions: rat cortex tissue
T2 construct: from tissue; host or cells: rat cortex
T2 sequence (P18090 whole entry): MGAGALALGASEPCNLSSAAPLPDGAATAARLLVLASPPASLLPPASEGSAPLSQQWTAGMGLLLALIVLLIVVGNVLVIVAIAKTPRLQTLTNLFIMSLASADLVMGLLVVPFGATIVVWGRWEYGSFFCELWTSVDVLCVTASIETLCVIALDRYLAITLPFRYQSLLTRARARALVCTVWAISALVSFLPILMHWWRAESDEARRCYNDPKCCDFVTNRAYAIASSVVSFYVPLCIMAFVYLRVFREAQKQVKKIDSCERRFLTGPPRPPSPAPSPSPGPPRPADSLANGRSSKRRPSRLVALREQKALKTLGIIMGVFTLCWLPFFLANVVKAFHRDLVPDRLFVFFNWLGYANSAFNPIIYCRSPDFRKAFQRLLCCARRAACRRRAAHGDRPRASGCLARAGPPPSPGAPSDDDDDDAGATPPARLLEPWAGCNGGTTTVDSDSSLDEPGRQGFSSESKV
Experimental: Radioligand binding assay was performed on tissue rat cortex. […] In order to measure the unspecific binding 1 μM of propranolol was applied. Microplate was covered with a sealing tape, mixed and incubated for 60 minutes at 37 °C. The incubation was terminated by rapid filtration through GF/B filter mate. Ten rapid washes with 200 µL 50 mM Tris buffer (4 °C, pH 7.6) were completed using 96-well FilterMate harvester (PerkinElmer, Boston, MA, USA). The filter mates were dried at 37 °C in forced air fan incubator and then solid scintillator MeltiLex was melted on filter mates at 90 °C for 4 min. […] Data were fitted to a one-site curve-fitting equation with Prism 6 (GraphPad Software, San Diego, CA, USA) and Ki values were estimated from the Cheng−Prusoff equation [51].

[6] = test system: calcium chloride-induced arrhythmia in rats; test: Prophylactic antiarrhythmic activity in calcium chloride-induced arrhythmia; type: in vivo, rat
[7] = test system: adrenaline-induced arrhythmia in rats; test: Prophylactic antiarrhythmic activity in adrenaline-induced arrhythmia; type: in vivo, rat; conditions: for Blocks (%) / Bradycardia (%) / Extrasystoles (%) / Mortality (%): adrenaline 20 μg/kg iv, % occurrence
[8] = test system: aconitine-induced arrhythmia in rats; test: Prophylactic antiarrhythmic activity in aconitine-induced arrhythmia; type: in vivo, rat
[9] = target: Ca2+ channel (L, verapamil site); test: Radioligand binding assay for Ca2+ channel ([3H]-D888); set-up: species or system rat
Experimental: The radioligand binding studies for K^+ and Ca^2+ channels were performed commercially by Eurofins Cerep (Celle l’Evescault, France) using testing procedures described elsewhere. […]

[10] = target: α2 receptors; set-up: method as in PMID 25813897; conditions: cited from earlier work
[11] = test system: isolated rat heart; test: Effect on normal ECG of isolated rat heart (Langendorff)
Experimental: Hearts form Wistar rats were isolated and immersed in Chenoweth-Koelle solution (120 mM NaCl; 5 mM KCl; 2.2 mM MgCl2; […]; 2.4 mM CaCl2; 10 mM glucose). Hearts were perfused according to the Langendorff model under a constant pressure of 70 cm H2O (6.87 kPa) with a solution at 37 °C, pH 7.4, constantly oxygenated (O2/CO2, 19:1) using the MyoHEART Langendorff System-900MH (Danish Myo Technology, Hinnerup, Denmark), which simultaneously monitored the ECG. After 20-min stabilization period, the tested compound was administered directly to the nutrient fluid every 15 min at increasing concentrations of […]. The influence on PQ, QTc interval, QRS complex and heart rate (RR) was assessed. The Bazzett’s formula: QTc = QT/√RR was used to calculate QTc.

[12] = test system: normal ECG in rats; test: Effect on normal electrocardiogram in rats; type: in vivo, rat; set-up: PQ / QRS / QTc / QT / Rate (heart rate): unit not given here; conditions: 5 mg/kg iv; for QTc: Bazzett's formula
Experimental: To eliminate the influence of the tested derivative on normal electrocardiogram (ECG), the experiment was performed. ECG tests were carried out with Aspel ASCARD apparatus (standard II lead, with the tape speed 50 mm/s and voltage calibration 1 Mv = 1 cm). The ECG was recorded prior and 5, 10, 15 min after iv administration of tested compound. The influence on PQ, QT, QTc interval, QRS complex and heart rate (RR) was defined. The Bazzett’s formula: QTc = QT/√RR was used to calculate QTc.

[13] = test system: blood pressure in normotensive rats; set-up: method as in PMID 25813897; conditions: doses 5, 1, and 0.5 mg/kg; cited from earlier work
[14] = test system: post-reperfusion arrhythmia of isolated rat heart; test: Antiarrhythmic activity in the post-reperfusion model in isolated rat heart
Experimental: Hearts form Wistar rats were isolated and immersed in Chenoweth–Koelle solution (120 mM NaCl; 5 mM KCl; 2.2 mM MgCl2; […]; 2.4 mM CaCl2; 10 mM glucose). Hearts were perfused according to the Langendorff model under a constant pressure of 70 cm H2O (6.87 kPa) with a solution at 37 °C, pH 7.4, constantly oxygenated (O2/CO2, 19:1) using the MyoHEART Langendorff System-900MH (Danish Myo Technology, Hinnerup, Denmark), which monitored the ECG. After 20 min stabilization period, acute myocardial ischemia was induced locally by installing a clamp on the left coronary artery (ischemic period). After 15 min, the clamp was removed, and ECG changes were monitored for 30 min (reperfusion period). The tested compound was added to the perfusion solution 15 min before coronary artery clamping. The point scale described by Bernauer was used to assess the antiarrhythmic activity in this arrhythmia model. The occurrence of a specific type of heart rhythm disturbance during the reperfusion period was scored according to the following scale: • occurrence of less than 10 extrasystoles—1 point; • occurrence of more than 10 extrasystoles—2 points; • presence of ventricular tachycardia—3 points; • presence of fibrillation—4 points.

[15] = calcium chloride 140 mg/kg iv, dose 5 mg/kg iv 15 min before, % occurrence
[16] = dose 0.03 mg/kg iv 15 min before
[17] = dose 0.06 mg/kg iv 15 min before
[18] = dose 0.125 mg/kg iv 15 min before
[19] = dose 0.25 mg/kg iv 15 min before
[20] = dose 0.5 mg/kg iv 15 min before
[21] = aconitine 20 μg/kg iv, dose 5 mg/kg iv 15 min before, % occurrence
[22] = 0 min (prior to administration)
[23] = reperfusion, concentration 10^−10 M, % occurrence

T1 sequence (Q12809 whole entry): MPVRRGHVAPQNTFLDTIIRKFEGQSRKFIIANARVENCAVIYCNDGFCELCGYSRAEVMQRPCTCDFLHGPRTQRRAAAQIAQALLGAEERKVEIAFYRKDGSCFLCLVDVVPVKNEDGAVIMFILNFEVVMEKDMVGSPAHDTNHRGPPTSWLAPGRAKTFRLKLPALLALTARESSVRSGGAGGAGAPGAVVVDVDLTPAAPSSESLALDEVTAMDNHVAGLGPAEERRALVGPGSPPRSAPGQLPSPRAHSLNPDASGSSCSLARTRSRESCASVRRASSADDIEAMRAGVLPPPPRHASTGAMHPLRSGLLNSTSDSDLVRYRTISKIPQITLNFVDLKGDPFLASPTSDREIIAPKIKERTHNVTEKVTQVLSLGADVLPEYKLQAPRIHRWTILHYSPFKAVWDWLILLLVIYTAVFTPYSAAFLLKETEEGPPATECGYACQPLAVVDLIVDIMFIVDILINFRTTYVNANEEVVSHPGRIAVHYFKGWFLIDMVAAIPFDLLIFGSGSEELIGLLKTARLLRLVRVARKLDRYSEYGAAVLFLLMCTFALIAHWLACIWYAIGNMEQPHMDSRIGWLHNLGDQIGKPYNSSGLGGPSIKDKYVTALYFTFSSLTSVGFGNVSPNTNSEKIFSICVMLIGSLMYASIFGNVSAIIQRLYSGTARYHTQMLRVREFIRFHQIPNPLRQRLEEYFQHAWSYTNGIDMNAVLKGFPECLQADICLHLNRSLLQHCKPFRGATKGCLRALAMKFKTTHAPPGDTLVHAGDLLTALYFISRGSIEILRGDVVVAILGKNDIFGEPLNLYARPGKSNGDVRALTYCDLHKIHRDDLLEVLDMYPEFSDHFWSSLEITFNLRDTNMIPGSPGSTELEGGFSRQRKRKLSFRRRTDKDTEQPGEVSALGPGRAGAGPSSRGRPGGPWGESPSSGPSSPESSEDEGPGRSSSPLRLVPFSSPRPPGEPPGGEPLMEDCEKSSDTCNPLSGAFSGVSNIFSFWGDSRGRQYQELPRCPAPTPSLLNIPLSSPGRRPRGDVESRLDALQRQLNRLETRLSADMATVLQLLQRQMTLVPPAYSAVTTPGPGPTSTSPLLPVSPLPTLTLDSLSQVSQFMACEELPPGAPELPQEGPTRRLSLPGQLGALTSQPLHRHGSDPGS

Cl.O=C1CCCN1CCCCN1CCN(c2ccccc2Cl)CC1 [S-75, 1-(4-(4-(2-chlorophenyl)piperazin-1-yl)butyl)pyrrolidin-2-one hydrochloride]
IC50 ([1]; HEK-293 cells, [3H]-dofetilide): 29.3 µM | affinity toward potassium channel hERG, times lower than terfenadine ([1]; vs terfenadine): 1172 times | EC50 [2]: 0.138 ± 0.0219 µM | pKi α1 receptors [3]: 7.3 | EC50 [4]: 0.00253 ± 0.0005 µM | β1 (pKi [nM]) [5]: did not bind | Blocks (%) [6, 15]: 100% | Bradycardia (%) [6, 15]: 100% | Extrasystoles (%) [6, 15]: 100% | Fibrillations (%) [6, 15]: 66.7% | Mortality (%) [6, 15]: 83.3% | activity in calcium chloride-induced arrhythmia ([6]; prophylactic, rats): no activity | ED50 ([7]; Rattus norvegicus, prophylactic, iv 15 min before adrenaline 20 μg/kg, Litchfield and Wilcoxon, limits in brackets, read-out: ED50 (a dose producing a 50% inhibition of ventricular contractions)): 0.05 mg/kg | Blocks (%) [7, 16]: 100% | Bradycardia (%) [7, 16]: 100% | Extrasystoles (%) [7, 16]: 100% | Mortality (%) [7, 16]: 33.3% | Blocks (%) [7, 17]: 50% | Bradycardia (%) [7, 17]: 100% | Extrasystoles (%) [7, 17]: 83.3% | Mortality (%) [7, 17]: 0% | Blocks (%) [7, 18]: 33.3% | Bradycardia (%) [7, 18]: 33.3% | Extrasystoles (%) [7, 18]: 66.7% | Mortality (%) [7, 18]: 50% | Blocks (%) [7, 19]: 50% | Bradycardia (%) [7, 19]: 16.7% | Extrasystoles (%) [7, 19]: 66.7% | Mortality (%) [7, 19]: 0% | Blocks (%) [7, 20]: 33.3% | Bradycardia (%) [7, 20]: 0% | Extrasystoles (%) [7, 20]: 16.7% | Mortality (%) [7, 20]: 0% | Blocks (%) [8, 21]: 100% | Bradycardia (%) [8, 21]: 100% | Extrasystoles (%) [8, 21]: 100% | Fibrillations (%) [8, 21]: 100% | Mortality (%) [8, 21]: 100% | activity in aconitine-induced arrhythmia ([8]; prophylactic, rats): no activity | IC50 ([9]; rat cortex tissue, [3H]-D888): 0.757 µM | affinity for L-type calcium channels, times lower than D-600 ([9]; vs reference D-600): 20 times | pKi α2 receptors [10]: 6.01 | prolongation of the PQ interval ([11]; 10^−8 mol/L): 15.1% | prolongation of the RR interval ([11]; 10^−8 mol/L): 10.5% | effect on QRS complex ([11]; 10^−10–10^−8 mol/L): not affecting; also recorded: did not affect | effect on QTc interval ([11]; 10^−10–10^−8 mol/L): not affecting; also recorded: did not affect | influence on QRS [12]: no influence | influence on QT [12]: no influence | influence on QTc [12]: no influence; also recorded: did not prolong | PQ [12, 22]: 46.44 ± 1.352 | QRS [12, 22]: 33.78 ± 1.384 | QT [12, 22]: 81.57 ± 1.356 | Rate (heart rate) [12, 22]: 310.8 ± 17.07 | QTc [12, 22]: 182.9 ± 4.805 | PQ ([12]; 5 min): 47.00 ± 1.537 | QRS ([12]; 5 min): 35.56 ± 1.701 | QT ([12]; 5 min): 81.53 ± 1.812 | Rate (heart rate) ([12]; 5 min): 307.9 ± 18.93 | QTc ([12]; 5 min): 192.3 ± 6.176 | PQ ([12]; 10 min): 49.78 ± 1.042 | QRS ([12]; 10 min): 33.89 ± 1.628 | QT ([12]; 10 min): 82.47 ± 2.186 | Rate (heart rate) ([12]; 10 min): 287.8 ± 22.94 | QTc ([12]; 10 min): 189.3 ± 9.543 | PQ ([12]; 15 min): 52.11 ± 2.061 | QRS ([12]; 15 min): 37.22 ± 1.637 | QT ([12]; 15 min): 83.90 ± 1.730 | Rate (heart rate) ([12]; 15 min): 284.0 ± 23.50 | QTc ([12]; 15 min): 190.9 ± 11.46 | decrease of the heart rate ([12]; after 10 min): 7.4% | decrease of the heart rate ([12]; after 15 min): 8.6% | prolongation of the PQ interval ([12]; after 15 min): 12.2% | effect on blood pressure [13]: significantly decreased the blood pressure | activity in the post-reperfusion model of arrhythmia [14]: did not show the activity | Extrasystoles (%) [14, 23]: 100% | Fibrillations (%) [14, 23]: 100% | Tachycardia (%) [14, 23]: 100%
